Measured values reported in ChEMBL document CHEMBL5705887, “Distinct concentration-dependent effects of the polo-like kinase 1-specific inhibitor GSK461364A, including differential effect on apoptosis” (Cancer Res, 2009).
Active and inactive are the calls of the source. The rule behind the calls is not given here.

Experiments:
[1] = test system: SJSA-1; experiment: Antiproliferative activity against human SJSA-1 cells assessed as of viable cell signal at minimum maximum cell growth incubated for 72 hrs by celltiter-glo assay relative to control; assay type: functional
[2] = test system: SK-BR-3; experiment: Antiproliferative activity against human SK-BR-3 cells assessed as growth inhibition incubated for 72 hrs by celltiter-glo assay; assay type: functional
[3] = test system: COLO 205; experiment: Antitumor activity against human COLO 205 cells xenografted in Nude mouse assessed as tumor growth delay time at 50 mg/kg, ip administered for 12 days; assay type: functional; conditions: time 12 day
[4] = test system: SK-MEL-5; experiment: Antiproliferative activity against human SK-MEL-5 cells assessed as viable cell signal at maximum growth inhibition incubated for 72 hrs by celltiter-glo assay relative to control; assay type: functional
[5] = test system: T-24; experiment: Antiproliferative activity against human T24 cells assessed as growth inhibition incubated for 72 hrs by celltiter-glo assay; assay type: functional
[6] = test system: MCF7; experiment: Antiproliferative activity against human MCF7 cells assessed as of viable cell signal at minimum maximum cell growth incubated for 72 hrs by celltiter-glo assay relative to control; assay type: functional
[7] = test system: RKO; experiment: Antiproliferative activity against human RKO cells assessed as of viable cell signal at minimum maximum cell growth incubated for 72 hrs by celltiter-glo assay relative to control; assay type: functional
[8] = test system: NCI-H522; experiment: Antiproliferative activity against human NCI-H522 cells assessed as viable cell signal at maximum growth inhibition incubated for 72 hrs by celltiter-glo assay relative to control; assay type: functional
[9] = test system: A-427; experiment: Antiproliferative activity against human A-427 cells assessed as viable cell signal at maximum growth inhibition incubated for 72 hrs by celltiter-glo assay relative to control; assay type: functional
[10] = test system: RKO; experiment: Antiproliferative activity against human RKO cells assessed as growth inhibition incubated for 72 hrs by celltiter-glo assay; assay type: functional
[11] = test system: NCI-H522; experiment: Antiproliferative activity against human NCI-H522 cells assessed as growth inhibition incubated for 72 hrs by celltiter-glo assay; assay type: functional
[12] = test system: SK-OV-3; experiment: Antiproliferative activity against human SK-OV-3 cells assessed as growth inhibition incubated for 72 hrs by celltiter-glo assay; assay type: functional
[13] = molecular target: Vascular endothelial growth factor receptor 3 (Homo sapiens) (UniProt P35916); experiment: Inhibition of N-terminal GST-tagged recombinant human FLT4 (800 to end residues) at 10 uM relative to control
[14] = test system: Jurkat; experiment: Antiproliferative activity against human Jurkat cells assessed as growth inhibition incubated for 72 hrs by celltiter-glo assay; assay type: functional
[15] = test system: NCI-N87; experiment: Antiproliferative activity against human NCI-N87 cells assessed as growth inhibition incubated for 72 hrs by celltiter-glo assay; assay type: functional
[16] = test system: THP-1; experiment: Antiproliferative activity against human THP-1 cells assessed as viable cell signal at maximum growth inhibition incubated for 72 hrs by celltiter-glo assay relative to control; assay type: functional
[17] = test system: HeLa; experiment: Antiproliferative activity against human HeLa cells assessed as of viable cell signal at minimum maximum cell growth incubated for 72 hrs by celltiter-glo assay relative to control; assay type: functional
[18] = test system: BT-474; experiment: Antiproliferative activity against human BT-474 cells assessed as of viable cell signal at minimum maximum cell growth incubated for 72 hrs by celltiter-glo assay relative to control; assay type: functional
[19] = test system: BXPC-3; experiment: Antiproliferative activity against human BXPC-3 cells assessed as of viable cell signal at minimum maximum cell growth incubated for 72 hrs by celltiter-glo assay relative to control; assay type: functional
[20] = test system: A549; experiment: Induction of mitotic arrest in human A549 cells assessed as disordered spindle formation at 313 nmol/L incubated for 16 hrs by alpha-tubulin/DAPI staining based confocal microscopic analysis; assay type: functional, cell-based
[21] = test system: SW-620; experiment: Antiproliferative activity against human SW620 cells assessed as growth inhibition incubated for 72 hrs by celltiter-glo assay; assay type: functional
[22] = test system: Calu-3; experiment: Antiproliferative activity against human Calu-3 cells assessed as growth inhibition incubated for 72 hrs by celltiter-glo assay; assay type: functional
[23] = test system: HCC1937; experiment: Antiproliferative activity against human HCC1937 cells assessed as viable cell signal at maximum growth inhibition incubated for 72 hrs by celltiter-glo assay relative to control; assay type: functional
[24] = test system: DU-145; experiment: Antiproliferative activity against human DU-145 cells assessed as viable cell signal at maximum growth inhibition incubated for 72 hrs by celltiter-glo assay relative to control; assay type: functional
[25] = molecular target: Fibroblast growth factor receptor 3 (Homo sapiens) (UniProt P22607); experiment: Inhibition of N-terminal his6-tagged recombinant human FGFR3 (447 to 761 residues) expressed in baculovirus Sf21 insect cells at 10 uM relative to control
[26] = molecular target: Cyclin-dependent kinase 1/cyclin B1 (Homo sapiens) (UniProt P06493+P14635); experiment: Inhibition of C-terminal his6-tagged recombinant human CDK1/full length N-terminal GST-tagged recombinant human cyclin B expressed in baculovirus Sf21 insect cells at 10 uM relative to control
[27] = test system: H322; experiment: Antiproliferative activity against human H322 cells assessed as growth inhibition incubated for 72 hrs by celltiter-glo assay; assay type: functional; conditions: NCI-H322
[28] = test system: ZR-75-1; experiment: Growth inhibition of human ZR-75-1 cells assessed as viable cells at 250 nmol/L measured immediately by celltiter-glo assay; assay type: functional; conditions: read-out: Activity
[29] = test system: NCI-H82; experiment: Antiproliferative activity against human NCI-H82 cells assessed as of viable cell signal at minimum maximum cell growth incubated for 72 hrs by celltiter-glo assay relative to control; assay type: functional
[30] = test system: COLO 205; experiment: Antitumor activity against human COLO 205 cells xenografted in Nude mouse assessed as tumor growth delay time at 50 mg/kg, ip administered every 2 to 4 days; assay type: functional; conditions: time 2-4 day
[31] = test system: U2OS; experiment: Induction of mitotic arrest in human U2OS cells expressing fused cyclin B1-GFP at > 250 nmol/L incubated for 48 hrs by image based analysis; assay type: functional, cell-based
[32] = test system: Jurkat; experiment: Antiproliferative activity against human Jurkat cells assessed as of viable cell signal at minimum maximum cell growth incubated for 72 hrs by celltiter-glo assay relative to control; assay type: functional
[33] = molecular target: Calcium/calmodulin-dependent protein kinase type II subunit delta (Homo sapiens) (UniProt Q13557); experiment: Inhibition recombinant human CAMKII-delta at 10 uM relative to control
[34] = test system: NCI-H82; experiment: Antiproliferative activity against human NCI-H82 cells assessed as growth inhibition incubated for 72 hrs by celltiter-glo assay; assay type: functional
[35] = test system: HeLa; experiment: Antiproliferative activity against human HeLa cells assessed as viable cell signal at maximum growth inhibition incubated for 72 hrs by celltiter-glo assay relative to control; assay type: functional
[36] = test system: OVCAR-8; experiment: Antiproliferative activity against human OVCAR-8 cells assessed as viable cell signal at maximum growth inhibition incubated for 72 hrs by celltiter-glo assay relative to control; assay type: functional
[37] = test system: SW-620; experiment: Antiproliferative activity against human SW620 cells assessed as of viable cell signal at minimum maximum cell growth incubated for 72 hrs by celltiter-glo assay relative to control; assay type: functional
[38] = test system: HCT-116; experiment: Antiproliferative activity against human HCT-116 cells assessed as viable cell signal at maximum growth inhibition incubated for 72 hrs by celltiter-glo assay relative to control; assay type: functional
[39] = test system: COLO 205; experiment: Antitumor activity against human COLO 205 cells xenografted in Nude mouse assessed as tumor growth delay time at 100 mg/kg, ip administered every 2 to 4 days; assay type: functional; conditions: time 2-4 day
[40] = test system: Panc 02.03; experiment: Antiproliferative activity against human Panc 02.03 cells assessed as of viable cell signal at minimum maximum cell growth incubated for 72 hrs by celltiter-glo assay relative to control; assay type: functional

Chain of Calcium/calmodulin-dependent protein kinase type II subunit delta (Homo sapiens) (Q13557 whole entry): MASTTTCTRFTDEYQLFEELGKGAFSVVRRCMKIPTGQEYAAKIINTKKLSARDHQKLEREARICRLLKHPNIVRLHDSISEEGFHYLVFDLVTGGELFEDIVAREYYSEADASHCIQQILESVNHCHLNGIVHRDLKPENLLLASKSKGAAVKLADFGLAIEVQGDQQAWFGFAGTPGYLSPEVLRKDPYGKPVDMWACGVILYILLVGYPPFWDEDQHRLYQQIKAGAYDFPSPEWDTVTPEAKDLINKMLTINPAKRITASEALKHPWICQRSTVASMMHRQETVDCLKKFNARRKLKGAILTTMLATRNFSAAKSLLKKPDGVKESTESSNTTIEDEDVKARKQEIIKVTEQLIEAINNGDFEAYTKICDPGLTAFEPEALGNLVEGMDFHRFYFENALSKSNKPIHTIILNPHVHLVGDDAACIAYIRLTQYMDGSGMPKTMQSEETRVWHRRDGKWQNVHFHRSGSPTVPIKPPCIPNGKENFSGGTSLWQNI
Chain of Vascular endothelial growth factor receptor 3 (Homo sapiens) (P35916 whole entry): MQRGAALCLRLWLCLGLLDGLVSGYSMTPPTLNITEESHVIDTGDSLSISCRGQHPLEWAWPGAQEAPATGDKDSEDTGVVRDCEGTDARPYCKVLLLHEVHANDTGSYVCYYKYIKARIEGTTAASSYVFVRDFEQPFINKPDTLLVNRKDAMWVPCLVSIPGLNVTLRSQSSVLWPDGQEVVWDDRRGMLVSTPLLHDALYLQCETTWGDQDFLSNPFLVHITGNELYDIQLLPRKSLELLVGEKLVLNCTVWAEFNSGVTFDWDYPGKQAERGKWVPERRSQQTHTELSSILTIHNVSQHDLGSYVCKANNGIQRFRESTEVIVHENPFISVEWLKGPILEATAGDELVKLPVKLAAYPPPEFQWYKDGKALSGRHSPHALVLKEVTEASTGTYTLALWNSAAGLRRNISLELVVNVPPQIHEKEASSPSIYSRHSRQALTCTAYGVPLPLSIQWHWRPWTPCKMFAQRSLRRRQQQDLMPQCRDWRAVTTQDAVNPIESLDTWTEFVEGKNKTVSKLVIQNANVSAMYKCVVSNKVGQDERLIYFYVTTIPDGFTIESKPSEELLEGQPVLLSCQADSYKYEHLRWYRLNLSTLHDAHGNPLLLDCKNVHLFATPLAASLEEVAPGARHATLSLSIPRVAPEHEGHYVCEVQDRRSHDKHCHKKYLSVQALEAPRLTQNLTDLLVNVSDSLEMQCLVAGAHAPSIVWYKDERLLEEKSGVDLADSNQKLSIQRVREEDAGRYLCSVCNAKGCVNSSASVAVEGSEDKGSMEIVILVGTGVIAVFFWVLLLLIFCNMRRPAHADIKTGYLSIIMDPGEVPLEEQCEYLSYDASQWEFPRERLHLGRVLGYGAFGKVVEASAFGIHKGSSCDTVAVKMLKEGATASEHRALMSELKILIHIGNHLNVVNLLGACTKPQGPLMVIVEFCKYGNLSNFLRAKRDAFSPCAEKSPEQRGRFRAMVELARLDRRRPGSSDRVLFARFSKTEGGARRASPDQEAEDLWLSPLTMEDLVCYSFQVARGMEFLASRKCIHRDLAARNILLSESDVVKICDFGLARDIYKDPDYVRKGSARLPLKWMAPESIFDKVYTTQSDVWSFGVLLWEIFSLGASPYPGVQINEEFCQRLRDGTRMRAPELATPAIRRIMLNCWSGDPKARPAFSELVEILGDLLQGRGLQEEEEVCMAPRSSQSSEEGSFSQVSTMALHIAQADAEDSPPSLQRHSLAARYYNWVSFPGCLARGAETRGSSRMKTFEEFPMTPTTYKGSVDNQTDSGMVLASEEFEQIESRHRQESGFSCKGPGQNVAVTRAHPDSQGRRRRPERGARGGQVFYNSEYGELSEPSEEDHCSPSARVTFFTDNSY
Chain of Fibroblast growth factor receptor 3 (Homo sapiens) (P22607 23-806 limits assumed): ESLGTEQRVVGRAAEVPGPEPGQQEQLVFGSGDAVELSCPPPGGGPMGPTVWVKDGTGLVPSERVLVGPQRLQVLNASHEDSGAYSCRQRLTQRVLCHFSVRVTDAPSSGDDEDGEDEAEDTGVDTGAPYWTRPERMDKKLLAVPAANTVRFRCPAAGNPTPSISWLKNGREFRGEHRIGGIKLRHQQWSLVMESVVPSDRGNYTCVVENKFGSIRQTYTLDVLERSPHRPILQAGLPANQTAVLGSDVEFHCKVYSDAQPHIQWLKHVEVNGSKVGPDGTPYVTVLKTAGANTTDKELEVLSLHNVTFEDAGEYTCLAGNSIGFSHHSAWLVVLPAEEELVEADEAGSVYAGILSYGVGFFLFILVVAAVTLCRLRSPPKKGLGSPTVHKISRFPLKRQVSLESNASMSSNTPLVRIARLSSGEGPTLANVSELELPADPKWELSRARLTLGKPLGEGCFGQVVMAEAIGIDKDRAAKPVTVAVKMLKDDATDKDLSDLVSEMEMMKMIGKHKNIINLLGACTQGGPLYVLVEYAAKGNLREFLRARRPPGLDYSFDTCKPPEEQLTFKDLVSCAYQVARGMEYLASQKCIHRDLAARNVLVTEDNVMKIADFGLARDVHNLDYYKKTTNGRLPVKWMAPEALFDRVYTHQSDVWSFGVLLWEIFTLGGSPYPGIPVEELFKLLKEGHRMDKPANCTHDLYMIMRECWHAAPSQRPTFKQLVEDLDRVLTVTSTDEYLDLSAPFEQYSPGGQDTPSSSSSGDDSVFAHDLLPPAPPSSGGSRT
Chain of Cyclin-dependent kinase 1/cyclin B1 (Homo sapiens) (P06493 whole entry, looked up): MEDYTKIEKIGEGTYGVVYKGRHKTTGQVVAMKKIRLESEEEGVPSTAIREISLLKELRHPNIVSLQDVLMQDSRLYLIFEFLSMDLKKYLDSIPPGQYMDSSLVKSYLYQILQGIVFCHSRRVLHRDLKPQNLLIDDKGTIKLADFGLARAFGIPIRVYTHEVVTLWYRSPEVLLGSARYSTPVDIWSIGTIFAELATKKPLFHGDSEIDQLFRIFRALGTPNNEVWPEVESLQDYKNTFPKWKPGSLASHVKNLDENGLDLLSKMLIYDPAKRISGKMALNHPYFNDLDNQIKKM
Chain of Cyclin-dependent kinase 1/cyclin B1 (Homo sapiens) (P14635 whole entry, looked up): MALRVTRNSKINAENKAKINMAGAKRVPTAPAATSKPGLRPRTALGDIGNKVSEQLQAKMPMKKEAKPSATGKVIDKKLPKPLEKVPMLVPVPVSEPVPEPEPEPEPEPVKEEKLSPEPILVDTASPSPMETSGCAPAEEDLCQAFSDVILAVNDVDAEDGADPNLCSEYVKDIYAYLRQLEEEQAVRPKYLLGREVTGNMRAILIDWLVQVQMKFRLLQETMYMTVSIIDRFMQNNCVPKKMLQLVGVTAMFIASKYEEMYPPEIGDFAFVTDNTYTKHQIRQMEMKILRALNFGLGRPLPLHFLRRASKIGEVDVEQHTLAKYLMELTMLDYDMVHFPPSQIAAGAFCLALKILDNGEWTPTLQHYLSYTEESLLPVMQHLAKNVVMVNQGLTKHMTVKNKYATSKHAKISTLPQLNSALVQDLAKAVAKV

C[C@@H](Oc1cc(-n2cnc3ccc(CN4CCN(C)CC4)cc32)sc1C(N)=O)c1ccccc1C(F)(F)F [GSK-461364]
Emin [1]: 123.8%
GI50 [2]: 0.0158 µM
Time [3]: 62 days
Emax [4]: 258%
GI50 [5]: 0.0423 µM
Emin [6]: 125.4%
Emin [7]: 218%
Emax [8]: 264%
Emax [9]: 218%
GI50 [10]: 0.0629 µM
GI50 [11]: 0.0169 µM
GI50 [12]: 0.0289 µM
inhibition [13]: 87%
GI50 [14]: 0.0186 µM
GI50 [15]: 0.0215 µM
Emax [16]: 349%
Emin [17]: 32.2%
Emin [18]: 217%
Emin [19]: 103.3%
Activity [20]: Active
GI50 [21]: 0.0066 µM
GI50 [22]: 0.0357 µM
Emax [23]: 240%
Emax [24]: 500%
inhibition [25]: 60%
inhibition [26]: 66%
GI50 [27]: 0.0203 µM
viability at 0.25 µM [28]: 200%
Emin [29]: 22.8%
Time [30]: 39 days
Activity [31]: Active
Emin [32]: 2.2%
inhibition [33]: 88%
GI50 [34]: 0.00485 µM
Emax [35]: 406%
Emax [36]: 567%
Emin [37]: 54.6%
Emax [38]: 545%
Time [39]: 18 days
Emin [40]: 192%
